Experimental data taken from patent US11214772B2, “Production method for retinal tissue” (SUMITOMO DAINIPPON PHARMA CO., LTD., priority 2014, dated 2022).

Test system: human iPS cells (201B7 strain)
Assay: Bright field observation of cell aggregates in suspension culture (neuroepithelium formation)
Format: cell-based
Settings: day 18
Description: The thus-prepared subconfluent human iPS cells were treated with the cell dispersion solution by using TrypLE Select (manufactured by Life Technologies), further dispersed into single cells by pipetting operation, and the above human iPS cells dispersed into single cells were suspended in 100 μl of a serum-free medium at 1.2×10^4 cells per well of a non-cell-adhesive 96-well culture plate (PrimeSurface 96V-bottom plate, SUMITOMO BAKELITE). Thereafter, the cells were subjected to suspension culturing at 37° C., 5% CO2. As the serum-free medium (gfCDM+KSR) therefor, a serum-free medium which is a 1:1 mixture of F-12 medium and IMDM medium supplemented with 10% KSR, 450 μM 1-monothioglycerol, 1× Chemically defined lipid concentrate was used. At the time of the start of suspension culturing (day 0 after the start of suspension culturing, start of step 2), a serum-free medium supplemented with SAG (final concentration […]) as a Shh signal transduction pathway activating substance and Y27632 (20 μM) was used (FIG. 5A-D). By day 2 after the start of suspension culturing, cell aggregates were formed. On day 3 after the start of suspension culturing, a serum-free medium (50 μl) free of Y27632 and SAG was added. […] The thus-prepared cell aggregates were subjected to bright field observation under an inverted microscope (BIOREVO manufactured by KEYENCE) on day 18 after the start of suspension culturing.
The thus-prepared subconfluent human iPS cells were treated with the cell dispersion solution by using TrypLE Select (manufactured by Life Technologies), further dispersed into single cells by pipetting operation, and the above human iPS cells dispersed into single cells were suspended in 100 μl of a serum-free medium at 1.0×10^4 cells per well of a non-cell-adhesive 96-well culture plate (SUMILON SPHEROID V-bottom plate PrimeSurface 96V-bottom plate, SUMITOMO BAKELITE). Thereafter, the cells were subjected to suspension culturing at 37° C., 5% CO2. As the serum-free medium (gfCDM+KSR) therefor, a serum-free medium which is a 1:1 mixture of F-12 medium and IMDM medium supplemented with 10% KSR, 450 μM 1-monothioglycerol, 1× Chemically defined lipid concentrate was used. At the time of the start of suspension culturing (day 0 after the start of suspension culturing, start of step 2), the above serum-free medium supplemented with Y27632 (final concentration 20 μM) and further supplemented with SAG (final concentration 30 nM), Purmorphamine (manufactured by Wako, final concentration 0.2 μM), or human recombinant Shh (manufactured by R&D, Recombinant N-Terminus, final concentration 50 ng/ml) as a Shh signal transduction pathway activating substance was used (FIG. 8). On day 2 after the start of suspension culturing, a cell aggregates were formed. […]

Structure (SMILES): CNC1CCC(N(Cc2cccc(-c3ccncc3)c2)C(=O)c2sc3ccccc3c2Cl)CC1 (centres unmarked) [SAG]
- neuroepithelium formation (bright field) (Example 3, Essential 8, SAG 300 μM day 0, with or without BMP4 1.5 nM day 6): neuroepithelium was formed
- neuroepithelium formation (bright field) (Example 6, StemFit, SAG 30 nM, Purmorphamine 0.2 μM or human recombinant Shh 50 ng/ml day 0, BMP4 1.5 nM day 3): neuroepithelium was formed
